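Exposure lasted 48 hours, with cells grown in 96-well plates and compounds tested at five concentrations. The concentration for 50% growth inhibition is given as GI50. Definition used: TGI = concentration required for complete inhibition of growth.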
What follows are compounds tested on RXF 393 renal (assay: NCI-60 cell line screen, 48 h).

For `CN(C)c1ccc(-c2cc(-c3ccc(Nc4nc(Nc5ccc(Cl)cc5)nc(Nc5ccc(Cl)cc5)n4)cc3)no2)cc1`, which GI50 is on record?
Its GI50 is 2760 nM.

What about the TGI of the same compound?
The TGI was 6.04 µM.

How did the GI50 turn out when `COC(=O)c1ccc2[nH]c(O)c(C(=Nc3ccc(N(C)C(=O)CN4CCN(C)CC4)cc3)c3ccc(C)cc3)c2c1` was run?
The GI50 was 221 nM.

And the TGI?
Its TGI is 1.05 µM.

What follows are compounds tested on SF-295 CNS (assay: NCI-60 cell line screen, 48 h).

Which results are given for `O=C1/C(=C/c2ccc([N+](=O)[O-])cc2)COc2ccc(O)c(O)c21`?
GI50: 2.21 µM; TGI: 5.17 µM

Which results are given for `CN(C)c1ccc(-c2cc(-c3ccc(Nc4nc(Nc5ccc(Cl)cc5)nc(Nc5ccc(Cl)cc5)n4)cc3)no2)cc1`?
GI50: 6.36 µM; TGI: 43.8 µM

The compounds below were run on ACHN renal (assay: NCI-60 cell line screen, 48 h).

How did the GI50 turn out when `Clc1cccc(Cc2cn3cc(-c4ccccc4)nc3s2)c1Cl` was run?
The GI50 was 30.2 µM.

And the TGI?
Its TGI is greater than 100 µM.

For `O=C1/C(=C/c2ccc([N+](=O)[O-])cc2)COc2ccc(O)c(O)c21`, which GI50 is on record?
Its GI50 is 1.5 µM.

What about the TGI of the same compound?
Its TGI is 2.92 µM.

`CN(C)c1ccc(-c2cc(-c3ccc(Nc4nc(Nc5ccc(Cl)cc5)nc(Nc5ccc(Cl)cc5)n4)cc3)no2)cc1` was tested. Which GI50 did it give?
The GI50 was 7.9 µM.

What about the TGI of the same compound?
The TGI was greater than 100 µM.

What follows are compounds tested on CCRF-CEM leukemia (assay: NCI-60 cell line screen, 48 h).

What does the source list for `Clc1cccc(Cc2cn3cc(-c4ccccc4)nc3s2)c1Cl`?
GI50: > 100000 nM; TGI: > 100 µM

`CN(C)c1ccc(-c2cc(-c3ccc(Nc4nc(Nc5ccc(Cl)cc5)nc(Nc5ccc(Cl)cc5)n4)cc3)no2)cc1` was tested. Which GI50 did it give?
The GI50 was 2340 nM.

And the TGI?
The TGI was 6.47 µM.

For `NC(N)=N/N=C/c1c(-c2ccc(Cl)c([N+](=O)[O-])c2)nc2sc(Cl)cn12`, which TGI is on record?
Its TGI is greater than 100 µM.

Which GI50 does the source give for `COC(=O)c1ccc2[nH]c(O)c(C(=Nc3ccc(N(C)C(=O)CN4CCN(C)CC4)cc3)c3ccc(C)cc3)c2c1` here?
The GI50 was 355 nM.

Each compound was assayed on NCI/ADR-RES ovarian (assay: NCI-60 cell line screen, 48 h).

`Clc1cccc(Cc2cn3cc(-c4ccccc4)nc3s2)c1Cl` was tested. Which GI50 did it give?
The GI50 was 76.4 µM.

What about the TGI of the same compound?
The TGI was greater than 100 µM.

How did the GI50 turn out when `O=C1/C(=C/c2ccc([N+](=O)[O-])cc2)COc2ccc(O)c(O)c21` was run?
The GI50 was 2.66 µM.

And the TGI?
Its TGI is 9.33 µM.

With `CN(C)c1ccc(-c2cc(-c3ccc(Nc4nc(Nc5ccc(Cl)cc5)nc(Nc5ccc(Cl)cc5)n4)cc3)no2)cc1` as the compound, how does the GI50 read?
Its GI50 is 5.38 µM.

And the TGI?
Its TGI is 88.6 µM.

Which TGI does the source give for `NC(N)=N/N=C/c1c(-c2ccc(Cl)c([N+](=O)[O-])c2)nc2sc(Cl)cn12` here?
The TGI was greater than 100 µM.

What follows are compounds tested on SW-620 colon (assay: NCI-60 cell line screen, 48 h).

What does the source list for `Clc1cccc(Cc2cn3cc(-c4ccccc4)nc3s2)c1Cl`?
GI50: > 100 µM; TGI: > 100 µM

What does the source list for `O=C1/C(=C/c2ccc([N+](=O)[O-])cc2)COc2ccc(O)c(O)c21`?
GI50: 1.31 µM; TGI: 3.07 µM

With `CN(C)c1ccc(-c2cc(-c3ccc(Nc4nc(Nc5ccc(Cl)cc5)nc(Nc5ccc(Cl)cc5)n4)cc3)no2)cc1` as the compound, how does the GI50 read?
Its GI50 is 6.28 µM.

And the TGI?
The TGI was greater than 100 µM.

These compounds were tested on SK-MEL-5 melanoma (assay: NCI-60 cell line screen, 48 h).

Which results are given for `Clc1cccc(Cc2cn3cc(-c4ccccc4)nc3s2)c1Cl`?
GI50: > 100000 nM; TGI: > 100 µM

How did the GI50 turn out when `O=C1/C(=C/c2ccc([N+](=O)[O-])cc2)COc2ccc(O)c(O)c21` was run?
Its GI50 is 2120 nM.

What about the TGI of the same compound?
The TGI was 4.61 µM.

Which GI50 does the source give for `CN(C)c1ccc(-c2cc(-c3ccc(Nc4nc(Nc5ccc(Cl)cc5)nc(Nc5ccc(Cl)cc5)n4)cc3)no2)cc1` here?
The GI50 was 2070 nM.

And the TGI?
The TGI was 9.07 µM.

How did the TGI turn out when `NC(N)=N/N=C/c1c(-c2ccc(Cl)c([N+](=O)[O-])c2)nc2sc(Cl)cn12` was run?
The TGI was 15.9 µM.

With `COC(=O)c1ccc2[nH]c(O)c(C(=Nc3ccc(N(C)C(=O)CN4CCN(C)CC4)cc3)c3ccc(C)cc3)c2c1` as the compound, how does the GI50 read?
The GI50 was 1110 nM.

And the TGI?
The TGI was 2.39 µM.

What follows are compounds tested on SF-539 CNS (assay: NCI-60 cell line screen, 48 h).

Which GI50 does the source give for `Clc1cccc(Cc2cn3cc(-c4ccccc4)nc3s2)c1Cl` here?
The GI50 was 43.3 µM.

What about the TGI of the same compound?
Its TGI is greater than 100 µM.

`O=C1/C(=C/c2ccc([N+](=O)[O-])cc2)COc2ccc(O)c(O)c21` was tested. Which GI50 did it give?
Its GI50 is 1.7 µM.

And the TGI?
Its TGI is 3.33 µM.

What does the source list for `CN(C)c1ccc(-c2cc(-c3ccc(Nc4nc(Nc5ccc(Cl)cc5)nc(Nc5ccc(Cl)cc5)n4)cc3)no2)cc1`?
GI50: 5.18 µM; TGI: 21.2 µM

With `NC(N)=N/N=C/c1c(-c2ccc(Cl)c([N+](=O)[O-])c2)nc2sc(Cl)cn12` as the compound, how does the TGI read?
The TGI was 4.98 µM.

Reference: PubChem BioAssay (NCI)
